For one data set, the target named is T1, Syk (Homo sapiens, UniProt P43405).
T1 construct: purchased Life Technologies
The data set can be described thus: Syk enzyme inhibition (Z-LYTE FRET). As to conditions: Table 2A. It is filed as biochemical. Here is the method: (§1) The enzyme inhibitory activities of compounds disclosed herein were determined by FRET using synthetic peptides labelled with both donor and acceptor fluorophores (Z-LYTE, Life Technologies, Paisley, UK).
(§2) The relevant enzyme (1000 ng/mL, 1400 ng/mL or 2000 ng/mL respectively, 2.5 μL) was incubated with the test compound (either 40 μg/mL, 12 μg/mL, 4 μg/mL, 1.2 μg/mL, 0.4 μg/mL, 0.12 μg/mL, 0.04 μg/mL, 0.012 μg/mL, 0.004 μg/mL or 0.0012 μg/mL, 2.5 μL each) for 2 h at RT. The FRET peptides (8 μM, 2.5 μL), and appropriate ATP solutions (2.5 μL, 800 μM for c-Src, and 60 μM ATP for HCK and Syk) were then added to the enzyme/compound mixtures and incubated for 1 h at RT. Development reagent (protease, 5 μL) was added for 1 h prior to detection in a fluorescence microplate reader (EnVision, Perkin Elmer).
(§3) In all cases, the site-specific protease cleaves non-phosphorylated peptide only and eliminates the FRET signal. Phosphorylation levels of each reaction were calculated using the ratio of coumarin emission (donor) over fluorescein emission (acceptor), for which low ratios indicate high phosphorylation and high ratios indicate low phosphorylation levels.

The test system of data set [1] is ICAM-1 expression in BEAS2B cells. Nature of the data set: Poly I:C-induced ICAM-1 expression in BEAS2B cells. As to conditions: Homo sapiens, BEAS-2B, read-out: PolyIC/ICAM1 IC50 (BEAS2B). It is filed as cell-based. As for the experimental part:
Poly I:C was used in these studies as a simple, RNA virus mimic. Poly I:C-Oligofectamine mixture (2% Oligofectamine±1 μg/mL Poly I:C, 25 μL; Life Technologies and Invivogen Ltd., San Diego, Calif., respectively) was transfected into BEAS2B cells (human bronchial epithelial cells, ATCC). Cells were pre-incubated with final concentrations of test compounds for 2 h and the level of ICAM-1 expression on the cell surface was determined by cell-based ELISA. At a time point 18 h after poly I:C transfection, cells were fixed with 4% formaldehyde in PBS (100 μL) and then endogenous peroxidase was quenched by the addition of washing buffer (100 μL, 0.05% Tween in PBS: PBS-Tween) containing 0.1% sodium azide and 1% hydrogen peroxide. Cells were washed with wash-buffer (3×200 μL). After blocking the wells with 5% milk in PBS-Tween (100 μL) for 1 h, the cells were incubated with anti-human ICAM-1 antibody (50 μL; Cell Signaling Technology, Danvers, Mass.) in 1% BSA PBS overnight at 4° C.
The cells were washed with PBS-Tween (3×200 μL) and incubated with the secondary antibody (100 μL; HRP-conjugated anti-rabbit IgG, Dako Ltd., Glostrup, Denmark). The cells were then incubated with of substrate (50 μL) for 2-20 min, followed by the addition of stop solution (50 μL, 1N H2SO4). The ICAM-1 signal was detected by reading the absorbance at 450 nm against a reference wavelength of 655 nm using a spectrophotometer. The cells ware then washed with PBS-Tween (3×200 μL) and total cell numbers in each well were determined by reading absorbance at 595 nm after Crystal Violet staining (50 μL of a 2% solution in PBS) and elution by 1% SDS solution (100 μL) in PBS. The measured OD 450-655 readings were corrected for cell number by dividing with the OD595 reading in each well. The inhibition of ICAM-1 expression was calculated at each concentration of test compound by comparison with vehicle control.

The next data set relates to d-U937 cells. Nature of the data set: Cell viability: MTT assay in differentiated U937 cells. It is filed as cell-based, human. Particulars: 10 μg/mL. The gist of the method: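 Differentiated U937 cells exposed to compound at a final 10 μg/mL, either 4 h in 5% FCS RPMI1640 or 24 h in 10% FCS RPMI1640. MTT added for 1 h, formazan dissolved in DMSO, absorbance read at 550 nm; % viability loss relative to 0.5% DMSO vehicle, with increases shown as negative values.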
On the technique in general: Tetrazolium dyes change colour on reduction, which living cells bring about.

In another data set the target is T2, c-Src (Homo sapiens, UniProt P12931).
T2 construct: purchased Life Technologies
The data set can be described thus: c-Src enzyme inhibition (Z-LYTE FRET). Format: biochemical. As to conditions: Table 2A. Here is the method: as §1, §2, §3

For a further data set, the target named is T3, p38MAPKγ (MAPK12) (Homo sapiens, UniProt P53778).
T3 construct: purchased Life Technologies
T3 sequence (P53778 1-367): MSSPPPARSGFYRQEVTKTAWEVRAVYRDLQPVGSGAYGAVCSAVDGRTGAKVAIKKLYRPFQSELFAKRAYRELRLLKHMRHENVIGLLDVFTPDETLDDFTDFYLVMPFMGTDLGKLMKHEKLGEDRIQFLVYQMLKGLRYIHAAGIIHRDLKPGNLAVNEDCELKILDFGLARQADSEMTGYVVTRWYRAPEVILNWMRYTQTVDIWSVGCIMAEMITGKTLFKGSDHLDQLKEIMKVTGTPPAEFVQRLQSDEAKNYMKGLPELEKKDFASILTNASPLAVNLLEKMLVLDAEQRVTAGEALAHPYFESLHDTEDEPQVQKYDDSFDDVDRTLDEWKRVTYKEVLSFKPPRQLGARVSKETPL
The data set can be described thus: p38 MAPKγ enzyme inhibition (Z-LYTE FRET). Format: biochemical. Particulars: Table 2A; read-out: IC50 Values for Enzyme Inhibition p38 MAPKγ. In short, it runs like this: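 Z-LYTE read-out: after 1 h protease development, only non-phosphorylated peptide is cleaved, and the donor/acceptor (coumarin/fluorescein) ratio reports phosphorylation. Beforehand, enzyme and compound (stock concentrations 0.0012–40 μg/mL) were preincubated 2 h at RT, then the kinase reaction ran 1 h at RT with peptide and ATP (8 μM and 400 μM stocks).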

The target of another data set is T4, Hck (Homo sapiens, UniProt P08631).
T4 construct: purchased Life Technologies
Nature of the data set: Hck enzyme inhibition (Z-LYTE FRET). Format: biochemical. Particulars: Table 2A. Here is the method: as §1, §2, §3

Experimental findings from patent US11142515B2, “Pyrazolyl-ureas as kinase inhibitors” (RESPIVERT LIMITED, priority 2014, dated 2021) are described below.

pIC50: −log10 of the molar value.

T2 sequence (P12931 whole entry): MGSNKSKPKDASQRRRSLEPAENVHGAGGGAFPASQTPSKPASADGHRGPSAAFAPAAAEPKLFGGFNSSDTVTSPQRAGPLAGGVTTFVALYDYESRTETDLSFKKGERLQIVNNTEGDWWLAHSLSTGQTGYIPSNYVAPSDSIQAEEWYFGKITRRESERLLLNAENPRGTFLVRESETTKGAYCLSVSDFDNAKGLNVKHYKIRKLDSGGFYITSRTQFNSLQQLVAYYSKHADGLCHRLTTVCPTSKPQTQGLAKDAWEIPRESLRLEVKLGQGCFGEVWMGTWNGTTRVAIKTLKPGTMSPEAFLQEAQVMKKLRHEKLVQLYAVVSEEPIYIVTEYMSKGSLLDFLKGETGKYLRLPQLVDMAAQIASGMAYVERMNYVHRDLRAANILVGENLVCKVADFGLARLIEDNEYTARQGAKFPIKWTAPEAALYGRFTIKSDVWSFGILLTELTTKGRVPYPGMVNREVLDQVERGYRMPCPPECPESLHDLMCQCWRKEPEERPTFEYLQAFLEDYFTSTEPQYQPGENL
T4 sequence (P08631 22-526): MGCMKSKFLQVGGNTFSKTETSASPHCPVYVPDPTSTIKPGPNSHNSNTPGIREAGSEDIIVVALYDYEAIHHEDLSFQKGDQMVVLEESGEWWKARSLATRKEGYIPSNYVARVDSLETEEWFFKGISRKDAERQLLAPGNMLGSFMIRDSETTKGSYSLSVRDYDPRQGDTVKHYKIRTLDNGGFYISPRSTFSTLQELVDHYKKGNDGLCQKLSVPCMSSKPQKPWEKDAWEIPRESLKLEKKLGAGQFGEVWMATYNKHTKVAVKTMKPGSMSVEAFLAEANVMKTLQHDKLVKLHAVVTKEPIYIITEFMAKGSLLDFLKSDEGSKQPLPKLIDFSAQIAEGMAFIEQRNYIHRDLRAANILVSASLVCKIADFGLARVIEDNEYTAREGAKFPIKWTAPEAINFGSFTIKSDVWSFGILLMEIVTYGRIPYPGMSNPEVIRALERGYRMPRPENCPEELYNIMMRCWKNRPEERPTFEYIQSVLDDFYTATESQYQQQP

Take `CNC(=O)c1cnc(Nc2cc(COc3ccc(NC(=O)Nc4cc(C(C)(C)C)nn4-c4ccc(C)cc4)c4ccccc34)ccn2)cn1` [Example 7, 5-((4-(((4-(3-(3-(tert-Butyl)-1-(p-tolyl)-1H-pyrazol-5-yl)ureido)naphthalen-1-yl)oxy)methyl)pyridin-2-yl)amino)-N-methylpyrazine-2-carboxamide]: the pIC50 on Syk was below 4.82; in data set [1] it was below 5.82; on c-Src, 6.45; on p38MAPKγ (MAPK12), 6.82; against Hck, 7.19. In addition, in the data set with d-U937 cells, the “MTT Assay Cell viability at time point indicated in d-U937 Cells, 4 h” value (“MTT Assay Cell viability … in d-U937 Cells, 4 h” for short) is “+ (−ve and +ve indicate the value is below and above, respectively, the no significant effect threshold defined as 30% inhibition at 10 μg/mL at the time point indicated)”. In the data set on d-U937 cells, the “MTT Assay Cell viability at time point indicated in d-U937 Cells, 24 h” value (“MTT Assay Cell viability … 24 h” below) was “+ (−ve and +ve indicate the value is below and above, respectively, the no significant effect threshold defined as 30% inhibition at 10 μg/mL at the time point indicated)”.
For the compound `Cc1ccc(-n2nc(C(C)(C)C)cc2NC(=O)Nc2ccc(OCc3ccnc(Nc4cncc(CC(=O)N(C)C)n4)c3)c3ccccc23)cc1` [Example 8, 2-(6-((4-(((4-(3-(3-(tert-butyl)-1-(p-tolyl)-1H-pyrazol-5-yl)ureido)naphthalen-1-yl)oxy)methyl)pyridin-2-yl)amino)pyrazin-2-yl)-N,N-dimethylacetamide], the pIC50 was below 4.83 against Syk; 7.50 in data set [1]; 7.49 on c-Src; 7.37 on p38MAPKγ (MAPK12); 8.00 against Hck. For the same compound, the “MTT Assay Cell viability … in d-U937 Cells, 4 h” value with d-U937 cells was “− (−ve and +ve indicate the value is below and above, respectively, the no significant effect threshold defined as 30% inhibition at 10 μg/mL at the time point indicated)”. For the same compound, the “MTT Assay Cell viability … 24 h” value in the data set on d-U937 cells was “+ (−ve and +ve indicate the value is below and above, respectively, the no significant effect threshold defined as 30% inhibition at 10 μg/mL at the time point indicated)”.
Consider `Cc1ccc(-n2nc(C(C)(C)C)cc2NC(=O)Nc2ccc(OCc3ccnc(Nc4cnc(C(=O)N(C)C)cn4)c3)c3ccccc23)cc1` [Example 9, 5-((4-(((4-(3-(3-(tert-Butyl)-1-(p-tolyl)-1H-pyrazol-5-yl)ureido)naphthalen-1-yl)oxy)methyl)pyridin-2-yl)amino)-N,N-dimethylpyrazine-2-carboxamide], for which the pIC50 against Syk was below 4.83; in data set [1], 7.14; against c-Src, 5.60; at p38MAPKγ (MAPK12), 5.03; at Hck it was 5.82. Further, the “MTT Assay Cell viability … in d-U937 Cells, 4 h” value in the data set with d-U937 cells is “− (−ve and +ve indicate the value is below and above, respectively, the no significant effect threshold defined as 30% inhibition at 10 μg/mL at the time point indicated)”. Moreover, the “MTT Assay Cell viability … 24 h” value in the data set on d-U937 cells was “− (−ve and +ve indicate the value is below and above, respectively, the no significant effect threshold defined as 30% inhibition at 10 μg/mL at the time point indicated)”.
For the compound `Cc1ccc(-n2nc(C(C)(C)C)cc2NC(=O)Nc2ccc(OCc3ccnc(Nc4cnc(CO)cn4)c3)c3ccccc23)cc1` [Example 10, 1-(3-(tert-Butyl)-1-(p-tolyl)-1H-pyrazol-5-yl)-3-(4-((2-((5-(hydroxymethyl)pyrazin-2-yl)amino)pyridin-4-yl)methoxy)naphthalen-1-yl)urea], the pIC50 against Syk is below 4.80; in data set [1], 7.49; at c-Src, 7.33; on p38MAPKγ (MAPK12) it was 7.51; on Hck it was 7.80. Further, in the data set with d-U937 cells, the “MTT Assay Cell viability … in d-U937 Cells, 4 h” value is “− (−ve and +ve indicate the value is below and above, respectively, the no significant effect threshold defined as 30% inhibition at 10 μg/mL at the time point indicated)”. For the same compound, the “MTT Assay Cell viability … 24 h” value in the data set on d-U937 cells is “− (−ve and +ve indicate the value is below and above, respectively, the no significant effect threshold defined as 30% inhibition at 10 μg/mL at the time point indicated)”.
For the compound `Cc1ccc(-n2nc(C(C)(C)C)cc2NC(=O)Nc2ccc(OCc3ccnc(Nc4cncc(C#N)n4)c3)c3ccccc23)cc1` [Example 11], the pIC50 at Syk was below 4.79; in data set [1], below 5.80; on c-Src it was 6.22; on p38MAPKγ (MAPK12), 6.17; on Hck it was below 5.05. Also, the “MTT Assay Cell viability … in d-U937 Cells, 4 h” value in the data set on d-U937 cells is “− (−ve and +ve indicate the value is below and above, respectively, the no significant effect threshold defined as 30% inhibition at 10 μg/mL at the time point indicated)”. In the data set with d-U937 cells, the “MTT Assay Cell viability … 24 h” value is “− (−ve and +ve indicate the value is below and above, respectively, the no significant effect threshold defined as 30% inhibition at 10 μg/mL at the time point indicated)”.
On to `COc1ccc(-n2nc(C(C)(C)C)cc2NC(=O)Nc2ccc(OCc3ccnc(Nc4cnccn4)c3)c3ccccc23)cn1` [Example 12], for which the pIC50 was below 4.79 on Syk; 6.62 in data set [1]; 6.98 against c-Src; 6.70 on p38MAPKγ (MAPK12); 7.41 on Hck. In the data set on d-U937 cells, the “MTT Assay Cell viability … in d-U937 Cells, 4 h” value is “− (−ve and +ve indicate the value is below and above, respectively, the no significant effect threshold defined as 30% inhibition at 10 μg/mL at the time point indicated)”. In addition, the “MTT Assay Cell viability … 24 h” value with d-U937 cells is “− (−ve and +ve indicate the value is below and above, respectively, the no significant effect threshold defined as 30% inhibition at 10 μg/mL at the time point indicated)”.
`Cc1ccc(-n2nc(C(C)(C)C)cc2NC(=O)Nc2ccc(OCc3ccnc(Nc4cnccn4)c3)c3ccccc23)s1` [Example 13]: the pIC50 at Syk was below 4.78; in data set [1] it was 6.25; against c-Src, 6.89; on p38MAPKγ (MAPK12) it was 7.20; against Hck, 7.31. Besides, the “MTT Assay Cell viability … in d-U937 Cells, 4 h” value in the data set on d-U937 cells was “− (−ve and +ve indicate the value is below and above, respectively, the no significant effect threshold defined as 30% inhibition at 10 μg/mL at the time point indicated)”. In addition, the “MTT Assay Cell viability … 24 h” value in the data set on d-U937 cells is “− (−ve and +ve indicate the value is below and above, respectively, the no significant effect threshold defined as 30% inhibition at 10 μg/mL at the time point indicated)”.
